In the test the target is T1, human ANO6 (variant 5) (Homo sapiens, UniProt Q4KMQ2).
T1 construct: expressed in transfected cells; host or cells: Fischer rat thyroid (FRT) cells
T1 sequence (Q4KMQ2 1-931 isoform Q4KMQ2-2): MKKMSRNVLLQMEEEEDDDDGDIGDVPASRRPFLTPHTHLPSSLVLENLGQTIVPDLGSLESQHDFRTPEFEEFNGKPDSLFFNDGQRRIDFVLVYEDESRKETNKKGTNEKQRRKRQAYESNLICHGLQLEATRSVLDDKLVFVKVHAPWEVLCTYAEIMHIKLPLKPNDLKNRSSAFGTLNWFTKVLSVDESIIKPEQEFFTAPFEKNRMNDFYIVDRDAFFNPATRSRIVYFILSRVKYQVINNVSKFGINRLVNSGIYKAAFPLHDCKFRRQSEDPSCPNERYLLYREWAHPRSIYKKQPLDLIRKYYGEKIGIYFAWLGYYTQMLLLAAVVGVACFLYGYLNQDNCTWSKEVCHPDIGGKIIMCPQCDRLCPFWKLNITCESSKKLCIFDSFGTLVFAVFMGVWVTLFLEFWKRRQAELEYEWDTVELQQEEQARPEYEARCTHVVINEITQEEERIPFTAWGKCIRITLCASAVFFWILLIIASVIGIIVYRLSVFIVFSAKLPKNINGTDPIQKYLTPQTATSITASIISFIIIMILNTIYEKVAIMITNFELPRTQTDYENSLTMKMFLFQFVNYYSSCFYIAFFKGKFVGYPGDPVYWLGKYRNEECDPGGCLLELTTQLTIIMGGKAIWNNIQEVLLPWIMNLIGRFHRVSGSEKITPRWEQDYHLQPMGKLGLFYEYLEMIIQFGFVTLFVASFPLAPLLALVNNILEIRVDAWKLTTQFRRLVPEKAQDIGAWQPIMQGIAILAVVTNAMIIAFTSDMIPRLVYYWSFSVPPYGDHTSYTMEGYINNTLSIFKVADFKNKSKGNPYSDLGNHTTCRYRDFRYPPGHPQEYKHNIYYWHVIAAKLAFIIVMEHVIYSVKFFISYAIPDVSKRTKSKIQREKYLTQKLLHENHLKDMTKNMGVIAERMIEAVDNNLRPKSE
The test can be described thus: Lact C2 assay (measuring phosphatidylserine externalization scramblase function). It counts as cell-based. The following applies: FRT, FRT cells expressing human ANO6 (variant 5), ionomycin 10 µM, Lact-C2-GFP fluorescence, average of three tests; for inhibition at 0.05 µM: compound 50 nM, read-out: % Inhibition 50 nM; for inhibition at 0.1 µM: compound 100 nM; for inhibition at 1 µM: compound 1 µM, read-out: % Inhibition 1 µM. As for the experimental part:
Ionomycin (Alomonelab, cat. # I-700), DAPI (Sigma- Aldrich, cat. # D8417), paraformaldehyde (Biosesang, cat. #P2031), Lionheart FX automated fluorescence microscope (BioTek), Gen5™ software program (BioTek), and Image J analysis software program.
After the incubation, the cells were treated with compounds dissolved in DMSO to 1% v/v in each well at each concentration (50 nM, 100 nM, and 1 µM) and reacted for 10 minutes. Thereafter, each well was treated with ionomycin to a final concentration of 10 µM, allowed to react for 10 minutes, and then washed with 200 µL PBS. After washing, each well was treated with 50 µL of Lactadherin-C2 (Lact-C2)-GFP mixed in DMEM medium to a final concentration of 500 nM to stain phosphatidylserine, and cultured at 37°C for 10 minutes. After completion of the reaction, the cells were washed with 200 µL PBS, and fixed with 4% paraformaldehyde for 5 minutes at room temperature. For morphological analysis, DAPI solution was added, and the cells were incubated for 15 minutes, followed by washing with PBS. The fluorescence intensity of Lact-C2-GFP bound to phosphatidylserine on the cell surface was measured using an automated fluorescence microscope. For quantitative analysis of the fluorescence intensity of Lact-C2-GFP, BioTek Gen5™ software and Image J analysis software programs were used.
Phosphatidylserine externalization inhibitory activity (%) by the compound was calculated through the following analysis method. Specifically, the background fluorescence value was subtracted from the measured Lact-C2-GFP fluorescence value, and the fluorescence value of the ionomycin non-treatment group and the ionomycin-treatment group in the same row where each test group was located in a 96-well microplate were calculated. In order to calculate the inhibitory activity (%) by the compound, the relative inhibitory activity was calculated by setting the compound and ionomycin non-treatment group to 100% inhibitory activity and the ionomycin alone treatment group to 0% inhibitory activity.

Bounds are passed on as bounds.

With `COC(=O)c1ccc2nc(-c3cccc(Nc4ccc(-c5cccnn5)cc4)c3)[nH]c2c1` [Example 61, methyl 2-(3-((4-(pyridazin-3-yl)phenyl)amino)phenyl)-1H-benzo[d]imidazol-6-carboxylate], the inhibition at 0.05 µM is more than 60% and the inhibition at 0.1 µM is more than 60%.
On to `FC(F)(F)c1ccc2nc(-c3cccc(Nc4ncc(-c5ncccn5)cn4)c3)[nH]c2c1` [Example 63, N-{3-[6-(trifluoromethyl)-1H-benzo[d]imidazol-2-yl]phenyl}-[2,5'-bipyrimidin]-2'-amine], for which the inhibition at 0.05 µM is more than 60% and the inhibition at 0.1 µM is more than 60%.
As for `Clc1cc2[nH]c(-c3cccc(Nc4ncc(-c5ccccn5)cn4)c3)nc2cn1` [Example 64, N-(3-(6-chloro-1H-imidazolo[4,5-c]pyridin-2-yl)phenyl)-5-(pyridin-2-yl)pyrimidin-2-amine], the inhibition at 0.05 µM was in the range of 30 to 60% and the inhibition at 0.1 µM was in the range of 30 to 60%.
Regarding `c1cc(Nc2ccc(-c3ccncn3)cn2)cc(-c2nc3ccccc3[nH]2)c1` [Example 68, N-[3-(1H-benzo[d]imidazol-2-yl)phenyl]-5-(pyrimidin-4-yl)pyridin-2-amine], the inhibition at 0.05 µM was more than 60% and the inhibition at 0.1 µM is more than 60%.
For the molecule `c1cnc(-c2ccc(Nc3cccc(-c4nc5ccccc5[nH]4)c3)nc2)nc1` [Example 69, N-(3-(lH-benzo[d]imidazol-2-yl)phenyl)-5-(pyrimidin-2-yl)pyridin-2-amine], the inhibition at 0.1 µM lay in the range of 30 to 60%.
As for `Fc1ccc2nc(-c3cccc(Nc4ccc(-c5ccncn5)cn4)c3)[nH]c2c1` [Example 72, N-(3-(6-fluoro-1H-benzo[d]imidazol-2-yl)phenyl)-5-(pyrimidin-4-yl)pyridin-2-amine], the inhibition at 0.05 µM is more than 60% and the inhibition at 0.1 µM was more than 60%.
As to `COC(=O)c1ccc2nc(-c3cccc(Nc4ccc(-c5ncccn5)cc4)c3)[nH]c2c1` [Example 78, methyl 2-(3-((4-(pyrimidin-2-yl)phenyl)amino)phenyl)-1H-benzo[d]imidazol-6-carboxylate], the inhibition at 1 µM was more than 60%.
Consider `FC(F)(F)c1cc2[nH]c(-c3cccc(Nc4ccc(-c5cccnn5)cc4)c3)nc2cn1` [Example 79, N-(4-(pyridazin-3-yl)phenyl)-3-(6-(trifluoromethyl)-1H-imidazolo[4,5-c]pyridin-2-yl)aniline], for which the inhibition at 0.05 µM was more than 60%.
With `Fc1cc2nc(-c3cccc(Nc4ccc(-c5cccnn5)cc4)c3)[nH]c2cc1F` [Example 81, 3-(5,6-difluoro-1H-benzo[d]imidazol-2-yl)-N-(4-pyridazin-3-ylphenyl)aniline], the inhibition at 0.05 µM was more than 60%.
Turning to `Clc1ccc2nc(-c3cccc(Nc4ncc(-c5ccccn5)cn4)c3)[nH]c2c1` [Example 82, N-[3-(6-chloro-1H-benzo[d]imidazol-2-yl)phenyl]-5-(2-pyridyl)pyrimidin-2-amine], the inhibition at 0.05 µM is more than 60%.
Regarding `FC(F)(F)c1ccc2nc(-c3cccc(Nc4ncc(-c5ccccn5)cn4)c3)[nH]c2c1` [Example 83, 5-(2-pyridyl)-N-[3-[6-(trifluoromethyl)-1H-benzo[d]imidazol-2-yl]phenyl]pyrimidin-2-amine], the inhibition at 0.05 µM was more than 60%.
Turning to `Clc1cc2[nH]c(-c3cccc(Nc4ccc(-c5cccnn5)cc4)c3)nc2cn1` [Example 84, 3-(6-chloro-1H-imidazo[4,5-c]pyridin-2-yl)-N-(4-pyridazin-3-ylphenyl)aniline], the inhibition at 1 µM is more than 60%.
For `FC(F)(F)c1cc2[nH]c(-c3cccc(Nc4ccc(-c5ccncn5)cc4)c3)nc2cn1` [Example 86, N-(4-pyrimidin-4-ylphenyl)-3-[6-(trifluoromethyl)-1H-imidazo[4,5-c]pyridin-2-yl]aniline], the inhibition at 1 µM is more than 60%.
Consider `FC(F)(F)c1ccc2nc(-c3cccc(Nc4ccc(-c5ccncn5)cn4)c3)[nH]c2c1` [Example 88, 5-pyrimidin-4-yl-N-[3-[6-(trifluoromethyl)-1H-benzo[d]imidazol-2-yl]phenyl]pyridin-2-amine], for which the inhibition at 0.05 µM was more than 60% and the inhibition at 1 µM is more than 60%.

The record behind these values is EP4559908A1, “HETEROARYL DERIVATIVE COMPOUND AND USE THEREOF” (S2CBio Inc., priority 2022, dated 2024).
